Like-named read-outs stand apart in the source and are kept apart here.
Assays:
Wistar rats [1] = assay: Serum hormones and blood metabolites following acute CGRP infusion in anaesthetised normal-fed rats; assay type: in vivo, rat; conditions: end vs commencement of infusion
Method: (§1) Surgery. Experiments were performed on male Wistar rats. Animals were randomly assigned to experimental groups as outlined below. Induction and maintenance of surgical anesthesia was by 3-5% halothane and 2L oxygen. An initial blood sample was taken from a tail artery for measurement of baseline levels of blood glucose and lactate, electrolyte, acid base and oxygen status and serum levels of free fatty acids, triglyceride and cholesterol. Immediately following this, the trachea was cannulated and the animal ventilated at 60-70 breaths.min-1 with air supplemented with O2. The respiratory rate and end-tidal pressure (10-15 cmH2O) were adjusted to maintain end-tidal CO2 at 35-40 mmHg. Body temperature was maintained at 37° C. throughout surgery and the experiment by a heating pad. The carotid artery and jugular vein were cannulated with a solid-state blood pressure transducer and a saline filled PE 50 catheter respectively. For the antagonist infusion studies, surgery was similar to above with the alteration being that both the carotid artery and jugular vein were cannulated with saline filled PE 50 catheters. Fluids (saline or hormone dissolved in saline) were delivered to the jugular vein with a Y-connector to join the two lines. The carotid artery line was connected to a blood pressure transducer. Blood samples were taken from this line at time zero (baseline reading), 30 minutes and every 20 minutes until the end of the experiment at 90 minutes.
Infusion. […] Blood glucose measurements were taken from tail capillaries at 5-minute intervals throughout the duration of the experiment. At the end of the infusion a terminal blood sample was taken by cardiac puncture and analysed as per the basal sample and also for various metabolites and hormones. Serum and plasma samples were stored at −80° C. until future analysis. Animals were killed by cervical dislocation and harvested tissues (brain, liver, kidney, soleus muscle, extensor digitorum longus muscle, left ventricle, retroperitoneal and epididymal fat pads) snap frozen in liquid N2 and stored at −80° C. until future analysis.

Wistar rats [2] = assay: Tissue free fatty acid and triglyceride content following infusion in normal-fed rats; assay type: in vivo, rat
Method: as §1
Infusion. […] Blood glucose measurements were taken from tail capillaries at 5-minute intervals throughout the duration of the experiment. At the end of the infusion a terminal blood sample was taken by cardiac puncture and analysed as per the basal sample and also for various metabolites and hormones. Serum and plasma samples were stored at −80° C. until future analysis. Animals were killed by cervical dislocation and harvested tissues (brain, liver, kidney, soleus muscle, extensor digitorum longus muscle, left ventricle, retroperitoneal and epididymal fat pads) snap frozen in liquid N2 and stored at −80° C. until future analysis. For the antagonist studies, the protocols was the same as above with the following changes: Infusion was a combination of antagonist, CGRP or saline.

soleus muscle [3] = assay: Masoprocol effect on CGRP1-evoked NEFA and triglyceride contents in soleus muscle from high fat-fed rats; assay type: cell-based, rat
Excerpt: Masoprocol, (nordihydroguaiaretic acid), is a lipoxygenase inhibitor, that has been identified as the active component of Creosote bush extracts. Oral administration of this compound lowers serum NEFA and triglyceride concentrations in rats with fructose-induced hypertriglyceridemia (Gowri et al. 2000, Am. J. Physiol. 279: E593-E600), and decrease blood glucose and triglyceride concentrations in a fat-fed/streptozotocin rat model (Reed et al. 1999, Diabetologia 42: 102-106).

[4] = target: CGRP-1 binding sites in rat skeletal muscle membrane; conditions: rat skeletal muscle membrane preparations, cited from earlier work
soleus muscle [5] = assay: Glucose transport (2-deoxy-D-glucose uptake) in incubated soleus muscle strips; assay type: cell-based, rat
Method: Soleus muscle preparation. All experiments were performed according to protocols approved by the Institutional Animal Ethics Committee. 5-6 week-old male Wistar rats (160 g) were kept on a 12:12-h light/dark cycle, and fed and watered ad libitum. Animals were anaesthetised with 50 mg/kg Nembutal (pentobarbitone sodium), then sacrificed by cervical dislocation. Soleus muscles were dissected under oxygenated KHB (118 mM NaCl, 4.75 mM KCl, 1.2 mM MgSO4, 24.8 mM NaHCO3, 1.2 mM KH2PO4, 2.54 mM CaCl2, 10 mM glucose, pH 7.4) and teased into halves, then incubated as described below.
Determination of rates of glucose transport in incubated soleus muscle strips. 4-5 muscle strips were added to each flask, which contained 10 ml DMEM. They were pre-incubated with hormones as indicated for 30 min at 30° C. in a shaking water bath, after which 5 μl of 2[^3H]DOG (0.5 μCi/ml) and 5 μl D[^14C(U)]sorbitol (0.05 μCi/ml) were added, then incubated for another 30 min; RIA grade BSA was added to 0.9% (w/v) to prevent non-specific binding of insulin to flasks. Following incubation, muscle strips were transferred to ice-cold KHB for 5-10 min to remove excess [^3H]DOG and [^14C]sorbitol. They were then blotted, frozen, tendons excised, then lyophilized for a further 48 h. Muscles were then weighed, transferred to scintillation vials and digested with 0.5 ml 1 M NaOH at 60° C. for 1 h. Scintillation fluid (4 ml) was added to each vial, and samples counted in a Beckman liquid scintillation spectrometer, preset to count ^14C and ^3H channels simultaneously. The amount of each isotope present in the samples was determined and used to calculate the extracellular space and the intracellular concentration of [^3H]DOG. The accumulation of intracellular [^3H]DOG, a measure of muscle glucose uptake, was calculated by subtracting the concentration of [^3H]DOG in the extracellular space from the corresponding total muscle [^3H]DOG]; extracellular [^3H]DOG was quantified by measuring the muscle concentration of [^14C]sorbitol.
Data analysis. One way ANOVA, Dunnett's Multiple Comparisons Test, and unpaired Student's t-tests were used to calculate the statistical significance of differences, as appropriate. Dose-response curves were fitted to a sigmoidal dose-response algorithm, as follows: Y=minimum+(maximum−minimum)/([…] log ^(EC50^−X), for 2-DOG-uptake; and by a four parameter logistic model, Y=minimum+(maximum−minimum)/(1+10 log ^(EC50^−X)Hill-Coefficient) for total glycogen and [^14C]glucose incorporation. Calculations were performed using Prism v2.0 (GraphPad Software, San Diego, Calif.) to derive values for half-maximal effective concentration (EC50). Displacement curves derived for competition of bound radioligand with cold ligand in transfected cells were calculated according to a one site competition fit using Prism v2.0.

[6] = 1 pM CGRP1, high fat-fed soleus
[7] = 100 nM CGRP1, high fat-fed soleus

rat CGRP-1
Change in [serum] Triglyceride (Wistar rats [1]; CGRP 60 min, CGRP-(8-37) 90 min, control 0.2): -0.7 mmol/L
Change in [serum] FFA (Wistar rats [1]; control −0.1): 0.4 mmol/L
Change in Lactate (Wistar rats [1]; heparinised whole blood, control 0.3): 1.7 mmol/L
FFA content, Heart (Wistar rats [2]; CGRP 100 pmol/kg/min 1 h, CGRP-(8-37) 10 nmol/kg/min 90 minutes, control 0.8 ± 0.2): 0.9 ± 0.1 µmol/g
FFA content, Liver (Wistar rats [2]; same infusions, control 0.1 ± 0.01): 0.7 ± 0.1 µmol/g
FFA content, Soleus Muscle (Wistar rats [2]; same infusions, control 0.2 ± 0.02): 0.6 ± 0.07 µmol/g
FFA content, Kidney (Wistar rats [2]; same infusions, control 0.8 ± 0.1): 0.9 ± 0.2 µmol/g
FFA content, Epi Adipose (Wistar rats [2]; same infusions, control 2.1 ± 0.5): 2.7 ± 0.7 µmol/g
triglyceride content, Kidney (Wistar rats [2]; same infusions, control 2.8 ± 0.5): 2.4 ± 0.4 µmol/g
triglyceride content, Heart (Wistar rats [2]; same infusions, control 2.9 ± 0.4): 2.6 ± 0.4 µmol/g
triglyceride content, Soleus Muscle (Wistar rats [2]; same infusions, control 3.7 ± 0.4): 1.5 ± 0.2 µmol/g
triglyceride content, Liver (Wistar rats [2]; same infusions, control 4.3 ± 0.3): 2.2 ± 0.5 µmol/g
triglyceride content, Epi Adipose (Wistar rats [2]; same infusions, control 5.1 ± 1.2): 5.0 ± 0.9 µmol/g
NEFA elevation (soleus muscle [3]; [6]): 482 ± 99 nmol/g
soleus triglyceride content (decrement) (soleus muscle [3]; [6]): 1.2 mmol/g
NEFA elevation (soleus muscle [3]; [7]): 533 ± 114 nmol/g
soleus triglyceride content (decrement) (soleus muscle [3]; [7]): 1.2 mmol/g
Kd ([4]; read-out: Kd, high affinity binding site): ~0.037 nM
Kd ([4]; read-out: Kd, second binding site): ~6 nM

Rat amylin
decrease of insulin-stimulated glucose uptake (soleus muscle [5]; amylin 10 nM, insulin 23.7 nM): 31%
2-DOG-uptake, insulin-stimulated (soleus muscle [5]; amylin (10 nM) + insulin (23.7 nM)): 19.5±3.6 nmol/g dry-wt muscle/min
2-DOG-uptake (soleus muscle [5]; hormone alone (amylin 10 nM; insulin 23.7 nM), basal 8.8 ± 0.9): 13.4 ± 2.4 nmol/g dry-wt muscle/min

Source: patent US20040038861A1, “Methods and compositions for normalizing lipid levels in mammalian tissues” (priority 2001, published 2004)
